Data: patent US20250140406A1, “CLASSIFYING TUMORS AND PREDICTING RESPONSIVENESS” (Oncocyte Corporation, priority 2022, published 2025)
Where two headings read alike, the source gives them in different places.

Tests used:
[1] = system: cancer cell lines classified IM, MSL, M; assay: PRISM screen compound sensitivity correlated with IM, MSL and M subtype of cell lines (101 gene signature); format: cell-based; conditions: for TNBCType train: 101 gene signature
[2] = system: cancer cell lines, DetermaIO classes; assay: Association of PRISM compound sensitivity with DetermaIO (DTIO) cell line classes; format: cell-based
[3] = correlation of PRISM compound sensitivity with IM subtype correlation, test cell set
[4] = correlation of PRISM compound sensitivity with M subtype correlation, test cell set
[5] = correlation of PRISM compound sensitivity with MSL subtype correlation, test cell set
[6] = correlation of PRISM compound sensitivity with DTIO, test cell set
[7] = correlation of PRISM compound sensitivity with DTIO, training cell set
[8] = correlation of PRISM compound sensitivity with IM subtype correlation, test cell set (188 cell lines)
[9] = correlation of PRISM compound sensitivity with M subtype correlation, test cell set (188 cell lines)
[10] = correlation of PRISM compound sensitivity with MSL subtype correlation, test cell set (188 cell lines)
[11] = subtype (IM, MSL or M) assigned to the compound by negative correlation of PRISM sensitivity with subtype, training cell set (371 cell lines)
[12] = correlation of PRISM compound sensitivity with DTIO (DetermaIO), test cell set (188 cell lines)
[13] = correlation of PRISM compound sensitivity with DTIO (DetermaIO), training cell set (371 cell lines)
[14] = subtype (IM, MSL or M) with which compound sensitivity is negatively correlated, training cell set (371 cell lines)
[15] = subtype (IM, MSL or M) with which PRISM compound sensitivity is negatively correlated, training cell set

SMILES	DTIO Corr test [2, 6]	DTIO Corr train [2, 7]	IM Corr test [1, 8]	M Corr test [1, 9]	MSL Corr test [1, 10]	also measured
CCOC(=O)c1c(C)n(C)c2ccc(O)cc12 [mecarbinate]	−0.09259	−0.07862				IM Corr test [1, 3]: −0.08712; M Corr test [1, 4]: 0.04238; MSL Corr test [1, 5]: −0.08851
CC(C)(CCCCCCCCCCC(C)(C)CC(=O)O)CC(=O)O [medica-16]			−0.06152	0.01613	−0.1086	TNBCType train [1, 11]: MSL; DTIO Corr test [2, 12]: 0.004343; DTIO Corr train [2, 13]: −0.05017
[O-][n+]1cccc(CO)c1 [mepiroxol]			−0.07855	0.0253	0.01789	DTIO Corr test [2, 12]: −0.08258; DTIO Corr train [2, 13]: −0.1082
CC(C)(C)NCc1cc(Nc2ccnc3cc(Cl)ccc23)c2c(c1O)CCCC2.O=P(O)(O)O.O=P(O)(O)O [naphthoquine-phosphate]	0.04517	0.03212	−0.01598	0.03443	−0.02275	TNBCType train [1, 14]: MSL
O=[N+]([O-])c1ccc([As](=O)(O)O)cc1 [nitarsone]			−0.01836	0.02346	−0.02358	TNBCType train [1, 11]: MSL; DTIO Corr test [2, 12]: −0.04129; DTIO Corr train [2, 13]: 0.03389
C#C[C@]1(OC(=O)CCCCCC)CC[C@H]2[C@@H]3CCC4=CC(=O)CC[C@@H]4[C@H]3CC[C@@]21C [norethisterone-enanthate]						IM Corr test [1]: −0.05873; M Corr test [1]: 0.01774; MSL Corr test [1]: 0.1042; DTIO Corr test [2]: 0.009756; DTIO Corr train [2]: −0.1312
COc1ccc(C2=N[C@@H](c3ccc(Cl)cc3)[C@@H](c3ccc(Cl)cc3)N2C(=O)N2CCNC(=O)C2)c(OC(C)C)c1 [nutlin-3]	0.1503	0.1606	0.06852	−0.07413	0.03536	
C[N+](C)(C)CC#CCN1CCCC1=O [oxotremorine-m]	−0.1128	−0.0669	−0.08895	0.05992	0.09728	
CC[C@H](C)[C@@H]1NC(=O)[C@H](Cc2ccc(O)cc2)NC(=O)[C@@H](N)CSSC[C@@H](C(=O)N2CCC[C@H]2C(=O)N[C@@H](CC(C)C)C(=O)NCC(N)=O)NC(=O)[C@H](CC(N)=O)NC(=O)[C@H](CCC(N)=O)NC1=O [oxytocin]	−0.07667	0.04167				IM Corr test [1, 3]: −0.06688; M Corr test [1, 4]: 0.01789; MSL Corr test [1, 5]: −0.03975; TNBCType train [1, 15]: MSL
CN1C(=O)C(N2CCCCC2)S/C1=C\C(=O)O (stereo not shown) [ozolinone]	−0.09683	0.04306	−0.1322	−0.01029	−0.06039	TNBCType train [1, 14]: MSL
COc1cc(/C=C/c2ccc(O)cc2)cc(OC)c1 [pterostilbene]						IM Corr test [1]: −0.08513; M Corr test [1]: 0.06063; MSL Corr test [1]: −0.05713; DTIO Corr test [2]: −0.06647; DTIO Corr train [2]: −0.0588
CNC(=O)c1cnn(-c2nc(N)c3ncn([C@@H]4O[C@H](CO)[C@@H](O)[C@H]4O)c3n2)c1 [regadenoson]	−0.1015	−0.1586	−0.08832	0.02954	−0.05759	
COC(=O)CC[C@@H]1N=C(c2ccccn2)c2cc(Br)ccc2-n2c(C)cnc21 [remimazolam]			0.03785	−0.0431	−0.1059	TNBCType train [1, 11]: MSL; DTIO Corr test [2, 12]: −0.03395; DTIO Corr train [2, 13]: −0.02892
COc1ccc([C@H]2CNC(=O)C2)cc1OC1CCCC1 [rolipram-S(+)]			−0.03939	−0.06383	−0.06426	DTIO Corr test [2, 12]: −0.07222; DTIO Corr train [2, 13]: −0.1043
C=C1CC[C@H](O)C/C1=C/C=C1\CCC[C@]2(C)[C@@H]([C@H](C)CC[C@@H](O)C(C)(C)O)CC[C@@H]12 [secalciferol]	−0.09515	−0.06151	−0.1254	0.07866	−0.05502	
C/C(=N\NC(=N)N)c1cc(NC(=O)CCCCCCCCC(=O)Nc2cc(/C(C)=N/NC(=N)N)cc(/C(C)=N/NC(=N)N)c2)cc(/C(C)=N/NC(=N)N)c1 [semapimod]	0.207	0.01264				IM Corr test [1, 3]: 0.1267; M Corr test [1, 4]: −0.09225; MSL Corr test [1, 5]: −0.0812; TNBCType train [1, 15]: MSL
COc1ccc(-c2cc(=O)c3c(OC)c(OC)c(OC)c(OC)c3o2)cc1 [tangeritin]	−0.01838	−0.09411				IM Corr test [1, 3]: −0.06559; M Corr test [1, 4]: 0.04891; MSL Corr test [1, 5]: −0.06252
c1cc2c(cc1C1CCCCC1)c1c3n2CCNC3CCC1 (stereo not shown) [tetrindole]	−0.04907	−0.09692	−0.02376	0.06046	0.06072	
CCN=C1N[C@@H]2[C@@H](O)[C@H](O)[C@@H](CO)O[C@@H]2S1 [thiamet-g]	0.003014	0.08206				IM Corr test [1, 3]: −0.00247; M Corr test [1, 4]: −0.01394; MSL Corr test [1, 5]: −0.01406; TNBCType train [1, 15]: MSL
O=C(NCc1ccccc1)c1csc(Nc2ccncn2)n1 [thiazovivin]	0.04845	0.03374	0.0391	−0.1082	−0.2135	TNBCType train [1, 14]: MSL
C[CH2][Hg][S]c1ccccc1C(=O)[O-].[Na+] [thiomersal]			0.1417	−0.2551	−0.1237	DTIO Corr test [2, 12]: 0.0287; DTIO Corr train [2, 13]: −0.05708; DTIO Corr test ([2]; correlation of compound sensitivity with DTIO, test set): 0.0287; DTIO Corr train ([2]; correlation of compound sensitivity with DTIO, training set): −0.05708
COc1cc(C[C@@H]2NCCc3cc(O)c(O)cc32)cc(OC)c1OC [trimethoquinol]	−0.05537	−0.0983	−0.06802	−0.00108	−0.05303	TNBCType train [1, 14]: MSL
COc1cc2ncnc(Nc3cccc(Cl)c3)c2cc1OC [tyrphostin-AG-1478]			−0.09525	0.2259	0.3434	DTIO Corr test [2, 12]: 0.02894; DTIO Corr train [2, 13]: −0.0761
CN[C@H]1CN(c2ccc3c(=O)c(C(=O)O)cn(-c4nccs4)c3n2)C[C@@H]1OC [voreloxin]	0.01495	−0.04486				IM Corr test [1, 3]: 0.02919; M Corr test [1, 4]: −0.09678; MSL Corr test [1, 5]: −0.06474; TNBCType train [1, 15]: MSL
Cc1nn(C)c2c1C(c1cccc(Cl)c1)=NCCN2 [zometapine]	−0.08271	0.09146	−0.1347	0.04602	−0.04215	TNBCType train [1, 14]: MSL
